“And” between values parts separate entries of the source, which are not always exact repeats. Identical values can stand only once.
Key:
[1] = biological target: PLK2 (Homo sapiens, UniProt Q9NYY3); experiment: biochemical; conditions: read-out: % enzyme activity, 1 μM; Run 1, Run 2
[2] = biological target: GSK3a (Homo sapiens, UniProt P49840); experiment: biochemical; conditions: read-out: % enzyme activity, 1 μM; Run 1, Run 2
[3] = biological target: CAMK1g (Homo sapiens, UniProt Q96NX5); conditions: 1 μM; Run 1, Run 2
[4] = biological target: ERK5/MAPK7 (Homo sapiens, UniProt Q13164); experiment: biochemical; conditions: read-out: % enzyme activity, 1 μM; Run 1, Run 2
[5] = biological target: CYP2B6
[6] = biological target: SIK1 (Homo sapiens, UniProt P57059); conditions: 1 μM; Run 1, Run 2
[7] = biological target: FLT1/VEGFR1 (Homo sapiens, UniProt P17948); experiment: biochemical; conditions: read-out: % enzyme activity, 1 μM; Run 1, Run 2
[8] = biological target: PKCeta (Homo sapiens, UniProt P24723); experiment: biochemical; conditions: read-out: % enzyme activity, 1 μM; Run 1, Run 2
[9] = biological target: PKCa (Homo sapiens, UniProt P17252); conditions: 1 μM; Run 1, Run 2
[10] = biological target: T1, PKG1b (Homo sapiens, UniProt Q13976); experiment: biochemical; conditions: read-out: % enzyme activity, 1 μM; Run 1, Run 2
T1 sequence (Q13976 1-686 isoform Q13976-2): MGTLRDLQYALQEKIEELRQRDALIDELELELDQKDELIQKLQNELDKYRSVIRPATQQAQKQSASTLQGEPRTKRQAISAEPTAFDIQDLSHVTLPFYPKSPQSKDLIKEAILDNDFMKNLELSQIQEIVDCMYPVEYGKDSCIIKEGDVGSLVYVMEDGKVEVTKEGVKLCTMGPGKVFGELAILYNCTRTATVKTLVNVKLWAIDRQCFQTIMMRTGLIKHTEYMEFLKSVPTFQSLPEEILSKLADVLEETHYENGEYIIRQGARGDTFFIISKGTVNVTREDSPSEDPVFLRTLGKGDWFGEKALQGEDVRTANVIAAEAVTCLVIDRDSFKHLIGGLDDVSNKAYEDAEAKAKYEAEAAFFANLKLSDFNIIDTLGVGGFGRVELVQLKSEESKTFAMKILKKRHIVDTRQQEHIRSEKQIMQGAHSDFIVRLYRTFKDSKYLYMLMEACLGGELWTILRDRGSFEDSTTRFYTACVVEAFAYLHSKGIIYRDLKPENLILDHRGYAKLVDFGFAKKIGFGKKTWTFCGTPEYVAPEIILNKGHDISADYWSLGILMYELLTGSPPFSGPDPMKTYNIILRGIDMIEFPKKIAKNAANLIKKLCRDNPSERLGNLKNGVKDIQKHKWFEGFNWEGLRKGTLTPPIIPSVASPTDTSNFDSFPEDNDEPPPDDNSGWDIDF

[11] = biological target: CLK4 (Homo sapiens, UniProt Q9HAZ1); conditions: 1 μM; Run 1, Run 2
[12] = biological target: CDK19/cyclin C (Homo sapiens, UniProt Q9BWU1); experiment: biochemical; conditions: read-out: % enzyme activity, 1 μM; Run 1, Run 2
[13] = biological target: SSTK/TSSK6 (Homo sapiens, UniProt Q9BXA6); experiment: biochemical; conditions: read-out: % enzyme activity, 1 μM; Run 1, Run 2
[14] = biological target: T2, MUSK (Homo sapiens, UniProt O15146); conditions: 1 μM; Run 1, Run 2
T2 sequence (O15146 24-869): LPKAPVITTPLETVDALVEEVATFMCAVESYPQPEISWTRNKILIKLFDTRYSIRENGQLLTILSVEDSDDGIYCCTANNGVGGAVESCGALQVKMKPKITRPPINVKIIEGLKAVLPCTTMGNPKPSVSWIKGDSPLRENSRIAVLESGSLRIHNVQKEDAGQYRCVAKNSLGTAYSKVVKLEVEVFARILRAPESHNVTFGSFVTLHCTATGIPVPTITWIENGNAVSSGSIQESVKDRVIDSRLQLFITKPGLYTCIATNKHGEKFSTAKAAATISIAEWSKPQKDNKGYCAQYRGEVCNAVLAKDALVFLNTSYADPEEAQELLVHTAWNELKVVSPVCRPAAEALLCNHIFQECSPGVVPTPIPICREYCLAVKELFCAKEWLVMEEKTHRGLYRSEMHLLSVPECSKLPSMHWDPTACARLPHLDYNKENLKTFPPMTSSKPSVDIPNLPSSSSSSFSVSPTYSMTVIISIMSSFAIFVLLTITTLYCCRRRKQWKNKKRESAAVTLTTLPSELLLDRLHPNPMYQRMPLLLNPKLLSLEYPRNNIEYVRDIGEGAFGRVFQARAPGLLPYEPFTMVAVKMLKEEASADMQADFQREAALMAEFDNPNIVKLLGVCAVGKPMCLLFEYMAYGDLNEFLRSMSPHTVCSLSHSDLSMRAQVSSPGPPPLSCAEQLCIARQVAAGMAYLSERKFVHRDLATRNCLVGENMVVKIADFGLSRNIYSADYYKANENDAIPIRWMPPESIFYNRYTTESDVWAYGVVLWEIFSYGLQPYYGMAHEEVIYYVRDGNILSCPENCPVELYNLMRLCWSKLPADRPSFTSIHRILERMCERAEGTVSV

[15] = biological target: CAMK2a (Homo sapiens, UniProt Q9UQM7); conditions: 1 μM; Run 1, Run 2
[16] = biological target: MARK1 (Homo sapiens, UniProt Q9P0L2); conditions: 1 μM; Run 1, Run 2
[17] = biological target: MST4 (Homo sapiens, UniProt Q9P289); experiment: biochemical; conditions: read-out: % enzyme activity, 1 μM; Run 1, Run 2
[18] = biological target: WNK3 (Homo sapiens, UniProt Q9BYP7); conditions: 1 μM; Run 1, Run 2
[19] = biological target: MAPKAPK3 (Homo sapiens, UniProt Q16644); conditions: 1 μM; Run 1, Run 2
[20] = test system: ALK1/ACVRL1
[21] = biological target: CYP3A4-Testosterone

FLT1/VEGFR1, sequence (P17948 27-1338): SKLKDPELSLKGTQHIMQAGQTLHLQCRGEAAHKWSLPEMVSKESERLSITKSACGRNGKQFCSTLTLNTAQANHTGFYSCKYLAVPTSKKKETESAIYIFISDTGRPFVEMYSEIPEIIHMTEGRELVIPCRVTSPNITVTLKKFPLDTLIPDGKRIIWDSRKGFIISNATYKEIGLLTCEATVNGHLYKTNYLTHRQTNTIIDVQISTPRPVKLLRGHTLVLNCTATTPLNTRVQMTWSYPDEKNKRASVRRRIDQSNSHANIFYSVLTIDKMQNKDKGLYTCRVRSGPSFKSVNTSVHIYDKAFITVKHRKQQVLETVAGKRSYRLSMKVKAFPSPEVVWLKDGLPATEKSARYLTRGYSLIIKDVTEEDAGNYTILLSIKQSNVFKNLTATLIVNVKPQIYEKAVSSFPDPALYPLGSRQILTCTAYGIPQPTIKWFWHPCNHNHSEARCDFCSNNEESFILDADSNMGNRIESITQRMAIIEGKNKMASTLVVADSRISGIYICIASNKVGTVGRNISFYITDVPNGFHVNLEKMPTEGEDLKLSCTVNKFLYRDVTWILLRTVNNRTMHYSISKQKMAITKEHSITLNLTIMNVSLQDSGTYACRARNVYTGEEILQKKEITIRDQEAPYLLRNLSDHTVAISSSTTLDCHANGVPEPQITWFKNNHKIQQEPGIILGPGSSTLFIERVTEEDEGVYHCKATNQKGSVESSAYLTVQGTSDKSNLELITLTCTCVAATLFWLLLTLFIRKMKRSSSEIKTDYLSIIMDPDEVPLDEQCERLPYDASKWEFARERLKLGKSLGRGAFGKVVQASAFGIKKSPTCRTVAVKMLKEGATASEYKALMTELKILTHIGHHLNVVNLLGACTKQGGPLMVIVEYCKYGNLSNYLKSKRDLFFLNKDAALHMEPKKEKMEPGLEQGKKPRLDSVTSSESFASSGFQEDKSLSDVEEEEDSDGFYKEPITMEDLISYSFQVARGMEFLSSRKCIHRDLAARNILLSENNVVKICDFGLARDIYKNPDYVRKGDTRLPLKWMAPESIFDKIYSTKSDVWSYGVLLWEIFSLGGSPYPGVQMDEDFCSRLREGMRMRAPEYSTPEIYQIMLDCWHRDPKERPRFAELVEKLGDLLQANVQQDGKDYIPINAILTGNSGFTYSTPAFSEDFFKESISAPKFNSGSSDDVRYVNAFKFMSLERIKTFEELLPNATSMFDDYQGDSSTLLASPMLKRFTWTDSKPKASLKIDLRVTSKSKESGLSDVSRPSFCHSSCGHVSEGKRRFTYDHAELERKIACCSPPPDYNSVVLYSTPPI
GSK3a, sequence (P49840 whole entry): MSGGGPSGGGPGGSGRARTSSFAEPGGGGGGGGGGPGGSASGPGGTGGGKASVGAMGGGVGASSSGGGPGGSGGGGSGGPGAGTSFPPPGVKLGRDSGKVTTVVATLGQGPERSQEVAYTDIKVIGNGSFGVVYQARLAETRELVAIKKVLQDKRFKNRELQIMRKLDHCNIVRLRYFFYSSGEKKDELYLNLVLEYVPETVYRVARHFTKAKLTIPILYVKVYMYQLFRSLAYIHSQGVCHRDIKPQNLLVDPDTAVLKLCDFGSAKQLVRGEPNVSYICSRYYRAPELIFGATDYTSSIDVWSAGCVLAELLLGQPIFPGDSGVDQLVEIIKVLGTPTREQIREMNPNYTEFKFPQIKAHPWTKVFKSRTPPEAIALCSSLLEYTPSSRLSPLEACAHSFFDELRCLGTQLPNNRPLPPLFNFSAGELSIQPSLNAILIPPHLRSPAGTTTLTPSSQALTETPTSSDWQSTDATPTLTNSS
SSTK/TSSK6, sequence (Q9BXA6 whole entry): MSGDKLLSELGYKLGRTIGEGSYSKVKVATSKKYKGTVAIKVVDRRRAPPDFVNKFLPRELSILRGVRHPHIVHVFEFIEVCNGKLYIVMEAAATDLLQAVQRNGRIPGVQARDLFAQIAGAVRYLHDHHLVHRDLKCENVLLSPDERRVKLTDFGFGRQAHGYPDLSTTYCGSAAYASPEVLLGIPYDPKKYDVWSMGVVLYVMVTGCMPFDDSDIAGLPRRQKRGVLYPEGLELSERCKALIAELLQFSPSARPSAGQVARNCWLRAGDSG
PLK2, sequence (Q9NYY3 whole entry): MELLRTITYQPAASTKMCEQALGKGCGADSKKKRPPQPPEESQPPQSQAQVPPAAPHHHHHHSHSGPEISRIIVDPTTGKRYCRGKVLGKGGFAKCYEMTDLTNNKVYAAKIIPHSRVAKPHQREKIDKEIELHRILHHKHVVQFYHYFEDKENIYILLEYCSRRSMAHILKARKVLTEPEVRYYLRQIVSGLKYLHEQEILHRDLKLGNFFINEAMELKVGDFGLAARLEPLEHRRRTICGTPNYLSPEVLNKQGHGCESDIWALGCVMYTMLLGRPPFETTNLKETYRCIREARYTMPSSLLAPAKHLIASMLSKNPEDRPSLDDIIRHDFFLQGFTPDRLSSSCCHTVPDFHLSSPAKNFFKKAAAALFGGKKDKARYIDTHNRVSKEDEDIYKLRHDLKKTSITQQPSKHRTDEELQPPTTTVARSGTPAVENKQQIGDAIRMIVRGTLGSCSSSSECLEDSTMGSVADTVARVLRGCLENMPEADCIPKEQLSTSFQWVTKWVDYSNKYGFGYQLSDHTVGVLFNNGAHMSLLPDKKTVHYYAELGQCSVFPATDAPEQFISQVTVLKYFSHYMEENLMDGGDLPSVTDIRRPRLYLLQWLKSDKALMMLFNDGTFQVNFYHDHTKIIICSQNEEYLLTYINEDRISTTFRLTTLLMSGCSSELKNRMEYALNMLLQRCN
SIK1, sequence (P57059 whole entry): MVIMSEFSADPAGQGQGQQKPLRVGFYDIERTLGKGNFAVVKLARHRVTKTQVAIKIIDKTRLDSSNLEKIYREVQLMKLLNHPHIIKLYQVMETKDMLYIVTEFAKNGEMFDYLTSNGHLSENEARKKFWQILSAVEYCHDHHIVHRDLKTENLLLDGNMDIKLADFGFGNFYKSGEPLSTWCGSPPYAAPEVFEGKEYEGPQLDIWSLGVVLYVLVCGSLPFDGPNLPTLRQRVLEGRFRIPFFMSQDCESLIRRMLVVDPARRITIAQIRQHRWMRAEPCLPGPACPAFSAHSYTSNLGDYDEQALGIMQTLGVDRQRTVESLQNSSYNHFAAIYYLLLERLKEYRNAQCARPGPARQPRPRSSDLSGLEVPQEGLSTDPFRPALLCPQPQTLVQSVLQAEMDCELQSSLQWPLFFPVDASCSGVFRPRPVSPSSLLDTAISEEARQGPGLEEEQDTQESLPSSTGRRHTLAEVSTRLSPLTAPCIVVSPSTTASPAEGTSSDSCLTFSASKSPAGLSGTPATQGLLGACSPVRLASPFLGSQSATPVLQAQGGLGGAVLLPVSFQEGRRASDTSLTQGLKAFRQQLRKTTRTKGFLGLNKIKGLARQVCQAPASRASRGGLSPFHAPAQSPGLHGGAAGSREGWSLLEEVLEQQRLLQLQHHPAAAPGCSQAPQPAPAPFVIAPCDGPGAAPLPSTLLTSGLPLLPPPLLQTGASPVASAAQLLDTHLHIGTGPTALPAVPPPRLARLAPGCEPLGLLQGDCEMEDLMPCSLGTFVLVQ
CDK19/cyclin C, sequence (Q9BWU1 whole entry): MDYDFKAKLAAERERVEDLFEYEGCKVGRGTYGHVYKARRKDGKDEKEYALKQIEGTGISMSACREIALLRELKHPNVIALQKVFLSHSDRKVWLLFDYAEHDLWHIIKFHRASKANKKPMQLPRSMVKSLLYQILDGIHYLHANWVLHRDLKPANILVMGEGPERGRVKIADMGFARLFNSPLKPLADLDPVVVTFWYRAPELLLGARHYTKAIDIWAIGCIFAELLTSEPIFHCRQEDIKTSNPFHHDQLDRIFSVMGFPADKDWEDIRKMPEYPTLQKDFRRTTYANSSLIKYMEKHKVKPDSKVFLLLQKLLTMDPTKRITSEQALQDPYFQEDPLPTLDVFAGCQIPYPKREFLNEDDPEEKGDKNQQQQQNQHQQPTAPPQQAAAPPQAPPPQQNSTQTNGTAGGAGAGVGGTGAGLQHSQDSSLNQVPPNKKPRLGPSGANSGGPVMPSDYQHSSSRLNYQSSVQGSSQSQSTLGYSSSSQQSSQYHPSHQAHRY
CDK19/cyclin C, sequence (P24863 whole entry partner): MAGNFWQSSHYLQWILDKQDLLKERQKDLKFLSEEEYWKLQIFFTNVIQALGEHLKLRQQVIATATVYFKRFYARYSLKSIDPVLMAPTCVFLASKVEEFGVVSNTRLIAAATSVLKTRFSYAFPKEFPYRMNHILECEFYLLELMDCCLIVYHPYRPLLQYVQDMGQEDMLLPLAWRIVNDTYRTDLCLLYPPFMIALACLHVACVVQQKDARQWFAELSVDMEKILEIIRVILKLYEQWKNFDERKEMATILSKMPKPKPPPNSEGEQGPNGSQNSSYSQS

Compound: COc1cc(-c2cncc(-c3ccc(N4CCN(C)CC4)cc3)c2C)cc(F)c1C(N)=O [Compound 26a, 2-Fluoro-6-methoxy-4-(4-methyl-5-(4-(4-methylpiperazin-1-yl)phenyl)pyridin-3-yl)benzamide]
- remaining activity at 1 µM [1]: 98.8%
- remaining activity at 1 µM [2]: 102%
- % enzyme activity [3]: 99.10%
- remaining activity at 1 µM [4]: 96.5%
- CYP inhibition [5]: > 50 µM
- % enzyme activity [6]: 82.71%
- remaining activity at 1 µM [7]: 107%
- remaining activity at 1 µM [8]: 94.9%
- % enzyme activity [9]: 89.62%
- remaining activity at 1 µM [10]: 102%
- % enzyme activity [11]: 85.58%
- remaining activity at 1 µM [12]: 79.1%
- remaining activity at 1 µM [13]: 110%
- % enzyme activity [14]: 91.48%
- % enzyme activity [15]: 83.69%
- % enzyme activity [16]: 87.63%
- remaining activity at 1 µM [17]: 86.9%
- % enzyme activity [18]: 88.15%
- % enzyme activity [19]: 99.20%
- % enzyme activity at 1 μM [20]: 2.65%
- CYP inhibition [21]: > 50 µM

Compound: COc1cc(-c2cncc(-c3ccc(N4C[C@@H](C)N(C)[C@@H](C)C4)cc3)c2C)cc(F)c1C(N)=O [Compound 26c, 2-Fluoro-6-methoxy-4-(4-methyl-5-(4-((3R,5S)-3,4,5-trimethylpiperazin-1-yl)phenyl)pyridin-3-yl)benzamide]
- remaining activity at 1 µM [1]: 103%
- remaining activity at 1 µM [2]: 102%
- % enzyme activity [3]: 107.66%
- remaining activity at 1 µM [4]: 101%
- CYP inhibition [5]: > 50 µM
- % enzyme activity [6]: 91.60%
- remaining activity at 1 µM [7]: 108%
- remaining activity at 1 µM [8]: 98.3%
- % enzyme activity [9]: 89.76%
- remaining activity at 1 µM [10]: 98.8%
- % enzyme activity [11]: 91.14%
- remaining activity at 1 µM [12]: 87.1%
- remaining activity at 1 µM [13]: 98.2%
- % enzyme activity [14]: 90.22%
- % enzyme activity [15]: 93.72%
- % enzyme activity [16]: 89.90%
- remaining activity at 1 µM [17]: 95%
- % enzyme activity [18]: 92.59%
- % enzyme activity [19]: 96.39%
- % enzyme activity at 1 μM [20]: 4.67% and 4.38%
- CYP inhibition [21]: > 50 µM

Source: PMC8213057, “Targeting ALK2: An Open Science Approach to Developing Therapeutics for the Treatment of Diffuse Intrinsic Pontine Glioma” (Journal of Medicinal Chemistry, 2020)
